Test results: ChEMBL document CHEMBL1147528, “(S)-N-[1-(4-cyclopropylmethyl-3,4-dihydro-2H-benzo[1,4]oxazin-6-yl)-ethyl]-3-(2-fluoro-phenyl)-acrylamide is a potent and efficacious KCNQ2 opener which inhibits induced hyperexcitability of rat hippocampal neurons” (Bioorg Med Chem Lett, 2004)

How the values were obtained:
[1] = target: Potassium voltage-gated channel subfamily KQT member 2 (Mus musculus) (UniProt Q9Z351); test: Efficacy for mKCNQ2 expressed in HEK293 cells relative to reference compound; type: functional, cell-based
Sequence of Potassium voltage-gated channel subfamily KQT member 2 (Mus musculus) (Q9Z351 whole entry): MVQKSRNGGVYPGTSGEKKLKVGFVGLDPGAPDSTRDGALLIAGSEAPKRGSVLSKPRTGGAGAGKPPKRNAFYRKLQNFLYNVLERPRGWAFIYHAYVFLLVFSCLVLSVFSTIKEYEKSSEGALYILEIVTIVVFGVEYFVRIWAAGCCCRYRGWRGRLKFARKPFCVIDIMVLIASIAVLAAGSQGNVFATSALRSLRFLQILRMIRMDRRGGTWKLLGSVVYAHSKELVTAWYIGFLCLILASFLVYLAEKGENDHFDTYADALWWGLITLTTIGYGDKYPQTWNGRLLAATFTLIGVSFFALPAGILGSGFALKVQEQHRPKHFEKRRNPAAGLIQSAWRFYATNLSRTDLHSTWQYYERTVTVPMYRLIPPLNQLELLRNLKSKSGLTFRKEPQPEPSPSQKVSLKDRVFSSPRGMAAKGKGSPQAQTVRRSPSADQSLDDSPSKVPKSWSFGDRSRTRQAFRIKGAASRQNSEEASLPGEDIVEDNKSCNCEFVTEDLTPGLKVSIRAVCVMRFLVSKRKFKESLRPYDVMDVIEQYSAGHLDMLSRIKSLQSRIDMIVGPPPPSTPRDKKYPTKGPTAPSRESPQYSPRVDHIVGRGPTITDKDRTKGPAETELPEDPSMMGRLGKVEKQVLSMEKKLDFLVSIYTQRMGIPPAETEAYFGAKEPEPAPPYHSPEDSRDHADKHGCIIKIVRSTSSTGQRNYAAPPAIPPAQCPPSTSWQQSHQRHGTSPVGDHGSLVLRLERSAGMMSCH

[2] = target: Potassium voltage-gated channel subfamily KQT member 2 (Mus musculus, UniProt Q9Z351); test: Whole-cell patch-clamp on recombinant mouse KCNQ2 channels expressed in HEK 293 cells at -40 mV; type: functional, cell-based, HEK293
Sequence of Potassium voltage-gated channel subfamily KQT member 2 (Q9Z351 whole entry): as above

`C[C@H](NC(=O)/C=C/c1ccccc1F)c1ccc2c(c1)N(CC1CC1)CCO2` showed an E/Eref [1] of 1.83 and an EC50 [2] of 60 nM.

In the case of `C[C@H](NC(=O)/C=C/c1ccccc1)c1cccc(N2CCOCC2)c1`, the E/Eref [1] is reported as 1.4 and the EC50 [2] is reported as 3280 nM.

`CCOC(=O)Nc1ccc(NCc2ccc(F)cc2)cc1N` [EZOGABINE] showed an E/Eref [1] of 1.6 and an EC50 [2] of 1300 nM.

`CCN1CCOc2ccc([C@H](C)NC(=O)/C=C/c3ccccc3F)cc21` gave an E/Eref [1] of 2.1 and an EC50 [2] of 200 nM.

`C[C@H](NC(=O)/C=C/c1ccccc1F)c1ccc2c(c1)N(C)CCO2` was tested, and the E/Eref [1] was 1.8 and the EC50 [2] was 940 nM.

Compound `C[C@H](NC(=O)/C=C/c1ccccc1F)c1ccc2c(c1)NCCO2` has an E/Eref [1] of 1.2 and an EC50 [2] of 2000 nM.
